Reference: publication PMC10548421, “Anticancer Potential of Diruthenium Complexes with Bridging Hydrocarbyl Ligands from Bioactive Alkynols” (Inorganic Chemistry, 2023)
Where two headings read alike, the source gives them in different places.

Key:
[1] = Octanol/water partition coefficient, shake-flask with UV–vis; type: physicochemical; conditions: 21 °C
Experimental: Partition coefficients (Pow), defined by the formula Pow = corg/caq, wherein corg and caq denote the molar concentrations of the specific compound in octanol and aqueous phases, respectively, were obtained using the shake-flask method with UV–vis measurements, following a previously described procedure (Table 3).[98] All the operations were carried out at 21 ± 1 °C. The wavelength corresponding to the maximum absorption of each compound within the range 350–430 nm was employed for quantifying using UV–vis techniques.

[2] = Stability in H2O/CH3OH solution (UV–vis); type: physicochemical; conditions: ca. 5:1 v/v
Experimental: (§1) […] The percentage of remaining complex in the solution was calculated by considering the change in absorbance at the characteristic wavelength. The identical procedure was employed to evaluate stability in MeOH and DMEM (about 1:5 v/v) solutions. DMEM stands for the cell culture medium (containing 1000 mg/L glucose and L-glutamine, excluding sodium bicarbonate and phenol red; reference D2902-Merck).

[3] = Stability in DMEM/CH3OH solution (UV–vis); type: physicochemical; conditions: ca. 5:1 v/v
Experimental: as §1

[4] = system: A2780 human ovarian carcinoma cell line; test: MTT in vitro cytotoxicity, A2780; type: cell-based
Experimental: (§2) The cytotoxicity assessment was conducted on various human cancer cell lines, including A2780 ovarian carcinoma, A2780R cisplatin-resistant ovarian carcinoma, MCF-7 breast, HOS osteosarcoma, A549 epithelial lung, PANC-1 pancreatic, Caco-2 colorectal, PC-3 prostate adenocarcinoma, and HeLa cervical cell lines. Additionally, the assessment extended to a normal human fetal fibroblast cell line (MRC-5). Cells were obtained from ATCC collection and cultivated according to the producer’s instructions. Stock solutions of the compounds were prepared in DMF immediately before application, and diluted with H2O to achieve the final concentration of 0.1% v/v DMF.[99] The culture media were enriched with 10% fetal calf serum. Subsequently, the cells were exposed to the tested compounds, vehicle (0.1% v/v DMF) and Triton X-100 (1% v/v), during incubation. The conventional MTT assay was carried out following different incubation periods (Tables 5-6). The absorbance was measured at 570 nm by using a spectrophotometer (Infinite M200, Schoeller Instruments, Prague, Czech Republic). The obtained data are presented as the percentage of cell viability with 100% representing negative control treatment (0.1% v/v DMF) and 0% representing the positive control (Triton X-100). The half-maximal inhibitory concentrations (IC50) were determined from dose–response curves using GraphPad Prism 6 software (GraphPad Software, San Diego, USA).

[5] = system: A2780R cisplatin-resistant human ovarian carcinoma cell line; test: MTT in vitro cytotoxicity, A2780R; type: cell-based; conditions: incubation 24 h, mean ± SD
Experimental: as §2

[6] = system: MCF-7 breast adenocarcinoma cell line; test: MTT in vitro cytotoxicity, MCF-7; type: cell-based, human; conditions: incubation 24 h, mean ± SD
Experimental: as §2

[7] = system: HOS human osteosarcoma cell line; test: MTT in vitro cytotoxicity, HOS; type: cell-based; conditions: incubation 24 h, mean ± SD
Experimental: as §2

[8] = system: A549 human lung adenocarcinoma cell line; test: MTT in vitro cytotoxicity, A549; type: cell-based; conditions: for IC50: incubation 24 h, mean ± SD
Experimental: as §2

[9] = system: PANC-1 human pancreatic carcinoma cell line; test: MTT in vitro cytotoxicity, PANC-1; type: cell-based; conditions: for IC50: incubation 24 h, mean ± SD
Experimental: as §2

[10] = system: Caco-2 human colorectal adenocarcinoma cell line; test: MTT in vitro cytotoxicity, Caco-2; type: cell-based; conditions: for IC50: incubation 24 h, mean ± SD
Experimental: as §2, with “Additionally,” for “The cytotoxicity assessment was conducted on various human cancer cell lines, including A2780 ovarian carcinoma, A2780R cisplatin-resistant ovarian carcinoma, MCF-7 breast, HOS osteosarcoma, A549 epithelial lung, PANC-1 pancreatic, Caco-2 colorectal, PC-3 prostate adenocarcinoma, and HeLa cervical cell lines. Additionally,”

[11] = system: PC-3 human prostate carcinoma cell line; test: MTT in vitro cytotoxicity, PC-3; type: cell-based; conditions: incubation 24 h, mean ± SD
Experimental: as §2

[12] = system: HeLa human cervical carcinoma cell line; test: MTT in vitro cytotoxicity, HeLa; type: cell-based; conditions: incubation 24 h, mean ± SD
Experimental: as §2

[13] = system: MRC-5 normal human lung fibroblast cell line; test: MTT in vitro cytotoxicity, MRC-5 (selectivity); type: cell-based; conditions: normal cells, MTT, incubation 24 h, mean ± SD
Experimental: as §2

[14] = Cyclic voltammetry in CH2Cl2/[N^nBu4]PF6; type: physicochemical; conditions: CH2Cl2/[N^nBu4]PF6 0.2 M
Experimental: Cyclic voltammetry measurements were conducted by using a PalmSens4 instrument connected to a computer operating with the PSTrace5 electrochemical software. Prior to use, anhydrous CH2Cl2 (Merck) was stored under argon over 3 Å molecular sieves. Both [N^nBu4]PF6 (electrochemical grade) and FeCp2, obtained from Fluka, were utilized without requiring additional purification. Cyclic voltammetries were carried out under argon by utilizing a 0.2 M solution of [N^nBu4]PF6 in CH2Cl2 as the supporting electrolyte. The working electrode and the counter electrode were comprised of a platinum disk and a platinum gauze, respectively, both enclosed within a glass tube. A leakage-free miniature electrode of Ag/AgCl/KCl (from eDAQ) was employed as a reference. The three-electrode designed cell was subjected to predrying via vacuum heating and then filled with argon gas. The Schlenk-type design of the cell was effective in upholding both anhydrous and anaerobic conditions. Subsequently, a solution of supporting electrolyte, prepared under argon, was introduced into the cell, and the CV of the solvent was acquired. Afterward, the analyte was introduced, and voltammograms were recorded. Under the selected experimental conditions, the one-electron oxidation of ferrocene occurred at a standard potential of E° = +0.45 V relative to Ag/AgCl/KCl.

A2780 cells [15] = test: Apoptosis, Annexin V/propidium iodide flow cytometry; type: cell-based, human; conditions: A2780, cisplatin 15 μM, 24 h, Annexin V/PI
Experimental: (§3) The A2780 ovarian carcinoma cell line was received from Merck (reference 93112519–1VL) and cultured at 37 °C in an environment with 5% CO2. The cultivation was carried out in complete cell culture medium (RPMI-1640 medium, Merck), which was supplemented with 10% fetal bovine serum (FBS, Merck), 1% L-glutamine (Merck) and 1% penicillin–streptomycin–neomycin (PSN, Merck). For the flow cytometry experiments, three independent duplicates were analyzed using a BD FACSVerse flow cytometer (Becton Dickinson, USA). At least 5 × 10^3 events were recorded for each sample. The same procedure was replicated for the experiments described below. Solutions of the complexes were formulated using the stock solutions (Section 5.1).
Apoptosis assay was performed using an Annexin V-FITC/PI commercial kit (V13242, Thermo Fisher Scientific, USA), while caspase 3/7 activation assay was performed with a CellEvent Caspase-3/7 Green Flow Cytometry Assay Kit (C10427, Thermo Fisher Scientific, USA). A2780 cells were seeded in 24-well plates at a density of 5 × 10^4 cells per well; after 24 h, the cells were exposed to 4 μM solution of the selected complex for 24 h. […] The supernatant was collected, cells were washed with PBS (0.1 M, pH 7.4), and trypsin was added (0.25% trypsin-EDTA, GibcoTM). Finally, complete cell culture medium was added to stop the trypsinization, and a final volume of 500 μL was divided into two 250 μL aliquots, following the protocol provided by the manufacturer. Samples were centrifuged, treated with the respective buffers, and then incubated in the dark at room temperature for 10 min (Annexin V-FITC/PI) or at 37 °C for 30 min (CellEventTM Caspase-3/7 Green Detection Reagent).

A2780 cells [16] = test: Autophagy analysis (CYTO-ID); type: cell-based, human; conditions: A2780, complexes 4 μM, cisplatin 15 μM, 24 h
Experimental: as §3
The potential induction of autophagy by 3a and 3b in A2780 cells was studied with the kit CYTO-ID Autophagy Detection 2.0 (from Enzo Life Sciences, USA), following the protocol provided by the manufacturer. […] The supernatant was collected, cells were washed with warm PBS, detached using 0.25% trypsin-EDTA (Gibco) and resuspended in a cell culture medium. Diluted CYTO-ID Green stain solution (according to the protocol) was used to stain the samples. Following incubation for 30 min in a light-protected environment, the samples were washed with PBS (phosphate-buffered saline). Subsequently, a flow cytometry experiment was conducted. A mixture of chloroquine (10 μM) and rapamycin (0.5 μM) was used as positive control.

A2780 cells [17] = test: Mitochondrial membrane potential analysis (MITO-ID); type: cell-based, human; conditions: A2780, complexes 4 μM, cisplatin 15 μM, 24 h
Experimental: as §3
To investigate the effects on mitochondrial membrane potential of A2780 cells, an MITO-ID Membrane potential detection kit (Enzo Life Sciences, USA) was used. Cells were seeded in a 24-well (5 × 10^4 cells/well), and then incubated with 4 μM solution of complexes for 24 h. The supernatant was collected, cells were washed with warm PBS, detached using 0.25% trypsin-EDTA (Gibco) and resuspended in a cell culture medium. Then, samples were stained with diluted MITO-ID MP Detection Reagent (according to the protocol) at RT for 15 min, prior to flow cytometry analysis. A positive control was established by treating the samples with 2 μM carbonyl cyanide 3-chlorophenylhydrazone.

[18] = MTT, incubation 24 h, mean ± SD (Table 5), read-out: IC50 A2780
[19] = time-course experiment (Table 6), 24 h, mean ± SD, read-out: IC50 A2780, incubation time 24 h
[20] = time-course experiment (Table 6), 48 h, mean ± SD, read-out: IC50 A2780, incubation time 48 h
[21] = time-course experiment (Table 6), 72 h, mean ± SD, read-out: IC50 A2780, incubation time 72 h
[22] = vs Ag/AgCl/KCl, peak potential of irreversible process

CC12CCC3C(CCC4=CC(=O)CCC43C)C1CCC2=C=[CH][Ru]1(=[C]=O)([CH]2C=CC=C2)[C](=O)[Ru+]1(=[C]=O)[CH]1C=CC=C1.F[B-](F)(F)F (mixture of isomers) [3c, [Ru2Cp2(CO)3{μ–η^1:η^2-CH=C=(testosteronylidene)}]BF4]
Log Pow [1]: 0.89 ± 0.12
residual complex % in H2O/CH3OH ([2]; 2 h): 94%
residual complex % in H2O/CH3OH ([2]; 18 h): 73%
residual complex % in DMEM/CH3OH ([3]; 2 h): 89%
residual complex % in DMEM/CH3OH ([3]; 18 h): 67%
IC50 [4, 18]: 6.3 ± 1.3 µM
IC50 [4, 19]: 4.7 ± 1 µM
IC50 [4, 20]: 5.1 ± 0.7 µM
IC50 [4, 21]: 6.8 ± 1.3 µM
IC50 [5]: 11.7 ± 2.4 µM
IC50 [6]: 22 ± 4 µM
IC50 [7]: 17.7 ± 2.8 µM
IC50 [8]: 20.7 ± 1.4 µM
IC50 [9]: 30 ± 0.6 µM
IC50 [10]: 42.8 ± 0.8 µM
IC50 [11]: 19.6 ± 3.7 µM
IC50 [12]: 16.3 ± 1.3 µM
IC50 [13]: 21.5 ± 4 µM

O=[C]=[Ru]12([CH]3C=CC=C3)[CH]=C(C3(O)CCCC3)[C](=O)[Ru]1([CH]1C=CC=C1)[C]2=O (stereo not drawn) [2a, [Ru2Cp2(CO)2{μ–η^1:η^3-CH=C(1-cyclopentanol)C(=O)}]]
Log Pow [1]: >1.5
residual complex % in H2O/CH3OH ([2]; 30 min): 97%
residual complex % in H2O/CH3OH ([2]; 2 h): 91%
residual complex % in H2O/CH3OH ([2]; 18 h): 23%
Formal electrode potential, oxidation [14, 22]: +0.55 V
Formal electrode potential, reduction [14, 22]: –1.82 V
Formal electrode potential, oxidation ([14]; vs FeCp2 (in parentheses)): +0.11 V
Formal electrode potential, reduction ([14]; vs FeCp2 (in parentheses)): −2.26 V

CC12CCC(=O)C=C1CCC1C2CCC2(C)C1CCC2(O)C1=[CH][Ru]2(=[C]=O)([CH]3C=CC=C3)[C](=O)[Ru]2([CH]2C=CC=C2)[C]1=O (stereo not drawn) [2c, [Ru2Cp2(CO)2{μ–η^1:η^3-CHC(17-testosterone)C(O)}]]
Log Pow [1]: >1.5
residual complex % in H2O/CH3OH ([2]; 30 min): 99%
residual complex % in H2O/CH3OH ([2]; 2 h): 81%
residual complex % in H2O/CH3OH ([2]; 18 h): 14%

Cc1ccc(C(C)C)cc1.[Cl][Ru]([Cl])[PH]12CN3CN(CN(C3)C1)C2 [RAPTA-C, [Ru(η^6-p-cymene)Cl2(pta)], reference compound]
IC50 [4, 18]: > 50 µM
IC50 [4, 19]: > 50 µM
IC50 [4, 20]: > 50 µM
IC50 [4, 21]: > 50 µM
IC50 [5]: > 50 µM
IC50 [6]: > 50 µM
IC50 [7]: > 50 µM
IC50 [8]: > 50 µM
IC50 [9]: > 50 µM
IC50 [10]: > 50 µM
IC50 [11]: > 50 µM
IC50 [12]: > 50 µM
IC50 [13]: > 50 µM

N.N.[Cl][Pt][Cl] [cisplatin, reference compound]
IC50 [5]: 40 ± 3.9 µM
IC50 [6]: 28.4 ± 2.7 µM
IC50 [7]: 26.3 ± 3.3 µM
IC50 [8]: 39.2 ± 3.1 µM
IC50 [9]: > 50 µM
IC50 [11]: > 50 µM
IC50 [12]: 30.7 ± 0.6 µM
IC50 [13]: > 50 µM
cells with apoptotic changes (A2780 cells [15]): ca. 40 % of the cells
autophagy level (in words) (A2780 cells [16]): significantly enhanced
cell count with damaged mitochondrial membranes (in words) (A2780 cells [17]): notable augmentation

[Ru2Cp2(CO)2{μ–η^1:η^3-CH=C(17α-estradiol)C(=O)}] [2b]
Log Pow [1]: >1.5
residual complex % in H2O/CH3OH ([2]; 30 min): 69%
residual complex % in H2O/CH3OH ([2]; 18 h): 0%
residual complex % in DMEM/CH3OH ([3]; 2 h): 50%
residual complex % in DMEM/CH3OH ([3]; 18 h): 21%
IC50 [4, 18]: 6.2 ± 1.2 µM
IC50 [4, 19]: 5.8 ± 0.4 µM
IC50 [4, 20]: 4.7 ± 0.8 µM
IC50 [4, 21]: 4.2 ± 0.6 µM
IC50 [5]: 7.3 ± 2.4 µM
IC50 [6]: 19 ± 4.5 µM
IC50 [7]: 24 ± 3.8 µM
activity toward A549 cells (in words) ([8]; 24 h): inactive
IC50 [8]: > 50 µM
activity toward PANC-1 cells (in words) ([9]; 24 h): inactive
IC50 [9]: > 50 µM
activity toward Caco-2 cells (in words) ([10]; 24 h): inactive
IC50 [10]: > 50 µM
IC50 [11]: 36 ± 4.1 µM
IC50 [12]: 5.5 ± 0.9 µM
IC50 [13]: > 50 µM
